Experimental data reported in patent US20070015771A1, “Lonidamine analogs” (Threshold pharmaceuticals, Inc., priority 2004, published 2007).
Where two headings read alike, the source gives them in different places.

Legend:
H460 cells = assay: Antiproliferation assay (Alamar Blue), H460 cells; type: cell-based
Method: (§1) To determine the effect of lonidamine and analogs thereof on cell proliferation, the antiproliferative activity of these compounds was tested in a multi-well Alamar Blue based assay (at 2 h and 3 days). Cell growth in the presence and absence of the test compound (compounds 1-22) was compared, as measured by a fluorescence plate reader at excitation 550 nm and emission 590 nm (see Biosource International Inc., Tech Application Notes, Use of Alamar Blue in the measurement of Cell Viability and Toxicity, Determining IC50). H460 cells (ATCC HTB-177 ([…]), 4,000 cells/well/200 μl) and LNCap cells (ATCC CRL-1740, 6,000 cells/well/200 μl) were seeded in a 96 well plate in RPMI medium (Invitrogen Corporation, Carlsbad, Calif.). After 24 hours, these plates were divided into 3 groups—Control group, 2 h treatment group and 3 day treatment group. In the 2 h treatment group, after 2 h the cells were rinsed to remove the test compound and incubated for 3 days, followed by staining with AlamarBlue. The cells in the 3 day treatment group were incubated for 3 days, followed by staining with AlamarBlue. In the Control group, AlamarBlue was added to the plate at (i) day 0 and (ii) day 3 and measured to establish the control reading.

LNCaP cells [1] = assay: Antiproliferation assay (Alamar Blue), LNCaP cells; type: cell-based, human; settings: 3 day treatment, read-out: GI50 LNCaP cell 3days
Method: as §1

DU-145 cells = assay: Antiproliferation assay 3 days, DU-145 cells; type: cell-based; settings: 3 day treatment; read-out: Du-145 cell line IC50
Method: To determine the effect of lonidamine analogs thereof on cell proliferation, the antiproliferative activity of these compounds was tested in a multi-well Alamar Blue based assay (at 3 days). Cell growth in the presence and absence of the test compound was compared, as measured by a fluoresence plate reader at excitation 550 nm and emission 590 nm (see Biosource International Inc., Tech Application Notes, Use of Alamar Blue in the measurement of Cell Viability and Toxity, Determining IC50). The following cell lines were tested: PWR-1E cells ((ATCC CRL-11611), 3500 cells/well/200 μl in Keratinocyte SFM medium (Gibco Products, Invitrogen Corporation, Carlsbad, Calif.)); DU-145 cells ((ATCC HTB-81), 4000 cells/well/200 μl in MEM Eagles medium (ATCC, Manassas, Va.)); PC3 cells ((ATCC CRL-1435), 4000 cells/200 μl in Modified HAM's F12 medium (ATCC, Manassas, Va.)); PNt2 cells ((Sigma-Aldrich, 95012613-1 VL), 4000 cells/well/200 μl in RPMI medium (Gibco Products, Invitrogen Corporation, Carlsbad, Calif.), BPH-1 ((DSMZ ACC-143), 4000 cells/well/200 μl in RPMI medium (Gibco Products, Invitrogen Corporation, Carlsbad, Calif), and NCI-H460 cells ((ATCC HTB-177), 4000 cells/well/200 μl in RPMI medium (Gibco Products, Invitrogen Corporation, Carlsbad, Calif.)). The cells were seeded in a 96 well plate in a medium specified above. After 24 hours, these plates were divided into 2 groups—Control group and 3 day treatment group. A test compound was added to each plate in the treatment groups at concentrations of […] as tabulated in Table 1 (in 2 μl 1 of 100% DMSO, final DMSO concentration 1% in all wells). For NCI-H460 cells, test compounds were added to each plate in the treatment groups at concentrations of 600, 300, 100, 30, 10, 3, and 1 μM (in 2 μl of 100% DMSO, final DMSO concentration 1% in all wells). The cells in the 3 day treatment group were incubated for 3 days, followed by staining with AlamarBlue. In the Control group, AlamarBlue was added to the plate at (i) day 0 and (ii) day 3 and measured to establish the control reading. […] For the NCI-H460 cells, the capacity of the cells to proliferate was measured 5 hours after addition of AlamarBlue using the same fluorescence plate reader as stated above.

LNCaP cells [2] = assay: Cell cycle analysis; type: cell-based, human; settings: for % G0/G / % G2/M / % S: 24 h
Method: The effect of compound 1 (as described in Example 1 above) on the cell cycle was determined as follows. LNCaP cells (2×10^5 cells/ml/well) were seeded in a 24 well plate. The culture media were removed after 24 h, the cells were trypsinized and centrifuged. The cell pellets were resuspended in 100 μl PBS buffer, after which 300 μl of ice-cold ethanol (96%) added dropwise, and the cells were incubated at 4° C. for at least 24 hr. The cells were centrifuged and the supernatant was discarded. The cell cycle staining reagent (Guava Technologies, Hayward, Calif., USA, 200 μl) was added to each well. The cells were shielded from light and incubated at room temperature for 30 min. The samples were analyzed (Guava PCA-96 instrument, Cytosoft software, Guava Technologies, 25801 Industrial Boulevard, Hayward Calif. 94545-2991, USA) as tabulated below.

CD-1 mice = assay: Tolerance study in CD-1 mice; type: in vivo, mouse
Text: The toxicological end-points in this study were standard clinical observations such as changes in movement, breathing, food consumption, mortality and decreased body weight.

SH rat prostate = assay: 5 day systemic administration in male SH rats, prostate; type: in vivo; settings: male SH rats, oral daily for 5 days at 50 mg/ml, day 6
Method: The effect of test compounds (lonidamine and lonidamine analogs) on the SH rat prostate was determined as follows. The test compound was orally administered daily for 5 days to male, SH rat, (n=6, 14 weeks old, Charles River Labs) at 50 mg/ml concentrations (as a 0.5% carboxymethylcellulose formulation). The control rats received an equal amount of the vehicle ([…]). Blood samples were collected 2 hours after administration on day 6, for pharmokinetic analysis of the compounds. On day 6 the rats were sacrificed and the entire prostate and the individual lobes (e.g., the ventral, dorso-lateral, and anterior lobes) were removed and weighed to measure absolute weights. Relative weights of prostate and individual lobes were calculated by dividing the absolute weight by the total body weight of the […]. Relative weights of the entire prostate, the dorsal prostate, and the ventral prostate were calculated by dividing the absolute weight by the total weight of the mouse. The histomorphology of the prostate was also analyzed and compared to that of the control or untreated prostate.

O=C(NO)c1nn(Cc2ccc(Cl)cc2Cl)c2ccccc12 [Compound 1]
GI50 (H460 cells; 3 day treatment, read-out: GI50 H460 cell 3 days): 15.8 µM
GI50 (H460 cells; read-out: GI50 H460 cell 2 hr, 2 h treatment then 3 days incubation): 50 µM
GI50 (LNCaP cells [1]): 40 µM
IC50 (DU-145 cells): 11 µM
effect on the cell cycle (LNCaP cells [2]; 2.5-200 μM): does not have a measurable effect
% G0/G (LNCaP cells [2]; 2.5 μM): 59%
% G2/M (LNCaP cells [2]; 2.5 μM): 27%
% S (LNCaP cells [2]; 2.5 μM): 11%
% G0/G (LNCaP cells [2]; 7.4 μM): 56%
% G2/M (LNCaP cells [2]; 7.4 μM): 26%
% S (LNCaP cells [2]; 7.4 μM): 15%
% G0/G (LNCaP cells [2]; 22.2 μM): 57%
% G2/M (LNCaP cells [2]; 22.2 μM): 25%
% S (LNCaP cells [2]; 22.2 μM): 11%
% G0/G (LNCaP cells [2]; 66.7 μM): 51%
% G2/M (LNCaP cells [2]; 66.7 μM): 24%
% S (LNCaP cells [2]; 66.7 μM): 19%
% G0/G (LNCaP cells [2]; 200 μM): 41%
% G2/M (LNCaP cells [2]; 200 μM): 17%
% S (LNCaP cells [2]; 200 μM): 18%
tolerated dose (CD-1 mice; CD-1 mice, oral dosing for 5 days): 500 mg/kg/day
therapeutic index compared to lonidamine (CD-1 mice; mice, when used for prostate weight reduction): 10 fold
Prostate shrinkage (SH rat prostate): −4.8%
